# In patent US8916607B2, “Use of piperphentonamine or salts thereof in manufacture of medicaments for treating brain diseases” (Guangzhou Municipal Zhongwei Biotechnology Limited Company, priority 2009, dated 2014):
# Marks after values point to notes of the source that are not given here.
# Tests used:
# [1] = test system: cerebral ischemia/reperfusion injury in mice; assay: focal cerebral ischemia reperfusion injury model in mice (suture method), TTC infarction area; format: in vivo
# Description: Focal cerebral ischemia reperfusion injury model is made in mice by using suture method, being ischemia for 2 h, then reperfusing for 24 h, and it proves that piperphentonamine hydrochloride has protective effect on ischemia-reperfusion cerebral injury.
# Mouse is anesthetized by injecting 10% chloral hydrate (350 mg/kg) in intraperitoneal, being intravenously administered 1 mg/kg, 5 mg/kg piperphentonamine hydrochloride or 20 u/kg coenzyme A, (COA), making the cerebral artery ischemia like as the method of example 6. Pulling out nylon thread from the internal carotid artery after the operation in 2 hours, until the end of the nylon thread is at bifurcation of the common carotid artery. Reperfusing for 24 hours. Except for not inserting a thread, the rest of steps for the false operation group are same as the above-mentioned. After reperfusion for 24 h, decapitating and taking the brain of survived mice, rapidly putting in −20° C. freezer for 5 min, then removing, quickly cutting coronal slices of 2.0 mm thickness from forward to back on the operating table, putting the slices in phosphate buffer solution with 1% TTC immediately, incubating for 30 min in avoiding light at room temperature. Flip brain slices to make them touch staining solution uniformly every 10 minute, and scanning and observing the dyeing results.
# The local cerebral ischemia model of mice was established by using thread bolt method, to validate that piperphentonamine acetate has protective effect on experimental cerebral ischemia animal.
# [2] = test system: cerebral edema of mice caused by closed cerebral trauma; assay: closed cerebral trauma model of mice, brain water content; format: in vivo, Kunming mice; conditions: method as example 2
# Description: There were 10 mice in each group.
# The closed cerebral trauma model of mice being established after fasting for 16 hours, administering intravenously to each group, striping and taking the brain of mouse after 24 hours, weighing the wet weight, and drying at 70° C. for 24 hours, then weighing the dry weight, and calculating brainwater content; the brain water content which is higher than normal values indicates the cerebral edema.
# The grouping method, administer method and model preparation were referred to example 2.
# [3] = test system: cerebral hemorrhage in rats induced by collagenase; assay: ICH model induced by collagenase: brain water content (BWC); format: in vivo, Wistar rats; conditions: 0.5 mg/kg iv 30 min before ICH
# Description: (§1) Animals are randomly divided into five groups: sham operation 24 h group; cerebral hemorrhage (Intracerebral Haemorrhage, ICH)+physiological saline group (model); ICH+piperphentonamine hydrochloride (JBTA, 2 mg/kg) group, called as high dose group (h); ICH+piperphentonamine hydrochloride (JBTA, 0.5 mg/kg) group, called as low dose group (1); ICH+nimodipine (Nim, 0.5 mg/kg) group. The last four groups are divided into 4 h, 8 h, 12 h, 24 h as four time subgroups respectively. Physiological saline solution, piperphentonamine hydrochloride and nimodipine are intravenously injected from rat tail before the ICH model is established for 30 minutes, once a day. Injecting slowly, the total amount of drug liquid is controlled in 1 ml/200 g body weight: physiological saline solution also being administered in 1 ml/200 g body weight. Each group has 7 Wistar rats.
# Observing the influence of piperphentonamine hydrochloride on the brain water content of intracerebral hemorrhage in rats in 4 h, 8 h, 12 h, 24 h, the animals of the different groups is anesthetized by chloral hydrate at predetermined time point, and decollating and taking the brain rapidly, putting the brain tissue on a filter paper wetted by saline solution to prevent water evaporating. Removing the leptomeninges and blood, cutting and taking the front half portion of brain tissue centered by the hole for the insertion needle, weighing precisely (accurate to 0.1 mg). It is controlled in 5 min to take the brain to finish weigh. Then putting in 95° C. constant temperature oven for 24 h, weighing the dry weight. The brain water content is calculated according to Blliot formula: BWC=(wet weight−dry weight)/wet weight×100%.
# (§2) Divide the animals randomly into five groups: sham operation (sham) 24 h group; ICH+normal saline group (model); ICH+piperphentonamine maleate (4 mg/kg) group, namely high dose group (h); ICH+piperphentonamine maleate (2 mg/kg) group, namely low dose group (1); ICH+nimodipine (0.5 mg/kg) group. The last four groups were divided into four time subgroup of 4 h, 8 h, 12 h and 24 h. Physiological solution, piperphentonamine maleate and nimodipine were injected intravenous from rat tail vein 30 minutes before the ICH model made, once a day. Inject slowly, the total amount of drug liquid was controlled in 1 ml/200 g body weight: normal saline was also administered in 1 ml/200 g body weight. Each group has seven Wistar rats.
# [4] = test system: cerebral hemorrhage in rats induced by collagenase; assay: ICH model induced by collagenase: NE in brain tissue by ELISA; format: in vivo, Wistar rats; conditions: 0.5 mg/kg; ICH rat brain tissue homogenate
# Source text: (§3) Rats in each group were anesthetized by chloral hydrate, decollated rapidly and the brains were taken out. The brain tissue around the hole was cut and procured, weighed precisely, and made into a 10% tissue homogenate using a glass homogenizer in an ice bath environment with physiological saline as homogenized medium, the supernatant of which was taken to be determined the NE activity using ELISA method.
# [5] = test system: infectious cerebral edema of rats (pertussis bacteria liquid); assay: infectious cerebral edema: brain water content and Evans blue content, combination with nimodipine; format: in vivo, SD rats; conditions: JBTA pretreatment 0.5 mg/kg iv, 2 times
# Description: The model of infectious cerebral edema is same with example 4. It is Studied that piperphentonamine hydrochloride and a blocker for specificity L-type calcium ion channel nimodipine influence on the brain water content and Evans blue (EB) content of infectious cerebral edema, of which the purpose is to provide experimental and theoretical basis for clinical treatment.
# Each group is further divided into three time group such as 30 min, 4 h and 24 h group.
# Injecting intravenously nimodipine after injecting bacteria for 5 min (Nim group, body weight 0.25 mg/kg), 24 h nimodipine treatment group is repeatedly injected the same dose once per 8 h; nimodipine treatment group pretreated by piperphentonamine hydrochloride is intravenously infused piperphentonamine hydrochloride (0.5 mg/kg, 2 times in total) before experimenting for 48 h and 24 h, then treated with nimodipine after the pretreatment. The operation of physiological saline group being same as bacteria liquid group, is injected the same volume of physiological saline at the same time. 2% Evans blue (EB, 0.2 mL/100 g body weight) is injected from the vein of the sublingua after injecting bacteria or saline in 10 min. Each group of animal is executed by decollating after observing to the specified time, rapidly removed the brain, and remove the leptomeninges and coagulation block of the cortical surface, taking full-thickness brain tissue of the back ⅓ of left hemisphere of the brain (about 0.1˜0.2 g, including gray matter and white matter) as specimens, the water content in brain tissue and the Evans blue content are determined by the dry wet method, and brain tissue is examined by electron microscope.
# [6] = test system: cerebral hemorrhage in rats induced by collagenase; assay: cerebral hemorrhage (ICH) model induced by collagenase: neurology score; format: in vivo, Wistar rats; conditions: 0.5 mg/kg iv 30 min before ICH
# Description: as §1
# The specific steps are as following: after the experimental rats are anesthetized by injecting chloral hydrate (350 mg/kg) in intraperitoneal, and being supinely immobilized in a stereotaxic instrument, and make the rat anterior fontanelle and posterior fontanelle in the same plane according to localization method reported by BAO Xinmin, etc. Being locally disinfected by iodine, incising in the midmost of scalp, scissoring the periosteum, exposing the anterior fontanelle, drilling a 1 mm diameter hole with thickness close to duramater in 3 mm left to the midline by number five needle. Inserting needle along the hole by the micro syringe fixed on a stereotaxic, the depth of needle insertion is 5.8 mm (i.e., the caudate nucleus position), slowly injecting collagenase VI 0.5 U. Injection time is 3 min, keeping for 5 min after injection, then pull the needle out, suturing the skin, and putting the rat into cage and feed. Inserting the needle and not injecting drugs in sham operation group, the remaining operations is the same as the above.
# After animals wake up, scoring nerve function defect of each group immediately according to the grading classification standards of nerve defect reported by Bedersog (litter improved).
# Choosing the animals with the score of 3 and more into the experiment, the animals are bred in different cages, eat and drink normally. Temperature is controlled in 20 to 25° C., score in 4 h, 8 h, 12 h, 24 h after establishment of the model.
# as §2
# [7] = test system: cerebral hemorrhage in rats induced by collagenase; assay: ICH model induced by collagenase: NO in brain tissue by nitrate reductase method; format: in vivo, Wistar rats; conditions: 0.5 mg/kg; ICH rat brain tissue
# Source text: as §3, with “brain take” for “brains”, “content of NO by nitrate reductase” for “NE activity using ELISA”
# [8] = test system: cultured cerebral neurons; assay: NMDA induces neuron injury in primary cultured neurons; format: cell-based, rat; conditions: drug 50 mmol/L; NMDA 50 mmol/L, 12 h
# [9] = test system: infective brain edema of rats (pertussis bacteria liquid); assay: infective cerebral edema by pertussis bacteria liquid: brain water, sodium and potassium ion content; format: in vivo, SD rats; design: Na^+ / K^+: unit not given here; conditions: pretreatment 0.5 mg/kg ip daily for 2 days; 4 h after bacterial liquid
# [10] = test system: infective brain edema of rats (pertussis bacteria liquid); assay: infective cerebral edema: IL-1β, TNF-α (ELISA) and NO (Griess) in cerebral tissue; format: in vivo, SD rats; conditions: pretreatment 0.5 mg/kg ip daily for 2 days; rat brain tissue, 4 h
# Description: Determine the content of IL-1β, TNF-α and NO by using ELISA and Griess method.
# Model preparation was same as that of example 4. Piperphentonamine acetate group was intraperitoneally injected with 0.5 mg/kg daily for 2 days 48 h before the injection of pertussis bacterial liquid. Rats in each group were decollated after being injected with bacterial liquid or saline 4 h. ELISA method and Griess method were used to measure the content of IL-1β, TNF-α and NO in brain homogenate of infectious brain edema model of rats.
# [11] = 24 h, Nim 0.25 mg/kg iv once per 8 h
molecule,measurement,setting,value
CN(CCC(=O)/C=C/c1ccc(O)cc1)CCc1ccc2c(c1)OCO2.O=C(O)CC(O)(CC(=O)O)C(=O)O [piperphentonamine citrate],The percentage of infarction area occupied the entire coronal plane (%),"[1]; treated group (C), dose not given, model as example 7",16.88 ± 2.48**^ΔΔ %
same,brain water content (%),[2]; 2 mg/kg,80.32 ± 7.72 %
same,brain water content (%),[2]; 4 mg/kg,78.84 ± 9.48 %
same,brain water content (%),[2]; 8 mg/kg,75.28 ± 6.48 %
"COCCOC(=O)C1=C(C)NC(C)=C(C(=O)OC(C)C)C1c1cccc([N+](=O)[O-])c1 (stereo not shown) [nimodipine, reference compound]",brain water content (%),[3]; 4 h,79.31 ± 0.76 %
same,brain water content,"[3]; 4 h (example 12), in %",62.20 ± 0.59
same,brain water content (%),[3]; 8 h,79.95 ± 0.36^Δ** %
same,brain water content,[3]; 8 h (example 12),62.70 ±0.25^Δ**
same,brain water content (%),[3]; 12 h,81.35 ± 0.71^ΔΔ** %
same,brain water content,[3]; 12 h (example 12),63.8 ± 0.56^ΔΔ**
same,brain water content (%),[3]; 24 h,82.89 ± 0.68^ΔΔ** %
same,brain water content,[3]; 24 h (example 12),65.02 ± 0.54^ΔΔ**
same,NE,[4],1.88 ± 0.035^a ng/ml
same,BWC(%),"[5]; 30 min, Nim 0.25 mg/kg iv",77.26 ± 0.34 %
same,EB,"[5]; 30 min, Nim 0.25 mg/kg iv",2.0 ± 0.18 μg/g ww
same,BWC(%),"[5]; 4 h, Nim 0.25 mg/kg iv",77.15 ± 0.66 %
same,EB,"[5]; 4 h, Nim 0.25 mg/kg iv",2.65 ± 0.44 μg/g ww
same,BWC(%),[5]; [11],76.98 ± 0.50 %
same,EB,[5]; [11],2.00 ± 0.6 μg/g ww
same,neurological score,[6]; 4 h,4.5 ± 0.87
same,neurological score,[6]; 4 h (example 12),3.65 ± 0.8
same,neurological score,[6]; 8 h,4.07 ± 1.14
same,neurological score,[6]; 8 h (example 12),3.25 ± 0.91
same,neurological score,[6]; 12 h,2.57 ± 1.14
same,neurological score,[6]; 12 h (example 12),2.05 ± 0.91
same,neurological score,[6]; 24 h,1.94 ± 0.74
same,neurological score,[6]; 24 h (example 12),1.55 ± 0.59**^Δ
same,NO,[7],2.40 ± 0.05^Δ μmol/g pro
"Ganglioside [GM, reference compound]",morphological change of culture neuron (protection function),[8],equal to the one of piperphentonamine hydrochloride 10 mmol/L
same,mortality,[8],40%
"CC(C)(COP(=O)(O)OP(=O)(O)OC[C@H]1O[C@@H](n2cnc3c(N)ncnc32)[C@H](O)[C@@H]1OP(=O)(O)O)[C@@H](O)C(=O)NCCC(=O)NCCS [CoA, coenzyme A, reference compound]",The percentage of infarction area occupied the entire coronal plane (%),"[1]; 20 U/kg iv, ischemia 2 h, reperfusion 24 h",20.53 ± 4.82 %
CC(=O)O.CN(CCC(=O)/C=C/c1ccc(O)cc1)CCc1ccc2c(c1)OCO2 [piperphentonamine acetate],The percentage of infarction area occupied the entire coronal plane (%),"[1]; 4 mg/kg, thread bolt method (example 15)",18.12 ± 2.64^ΔΔ %
same,K^+,[9],396.6 ± 39.9
same,Na^+,[9],164.7 ± 23.7
same,brain water content (%),[9],63.44 ± 0.4^3) %
same,IL-1β,[10],197.1 ± 27.1^2)3) pg/g
same,NO,[10],53.3 ± 3.71^2)3) nmol/g
same,TNF-α,[10],309.3 ± 83.5^2)3) pg/g
"Nc1ncnc2c1ncn2[C@@H]1O[C@H](COP(=O)(O)OP(=O)(O)OP(=O)(O)O)[C@@H](O)[C@H]1O [ATP, reference compound]",The percentage of infarction area occupied the entire coronal plane (%),"[1]; 5 mg/kg, method as example 7 (example 16)",20.53 ± 4.82 %
"CC1=NN(c2ccccc2)C(=O)C1 [Edaravone Injection, edaravone, reference compound]",The percentage of infarction area occupied the entire coronal plane (%),"[1]; 3 mg/kg, method as example 7 (example 16)",18.43 ± 3.56 %
